# Results published in patent US4996225A, “Tri-phenyl alkane derivatives and their oestrogenic, anti-oestrogenic and progestanic uses” (Farmos Group Ltd., priority 1982, dated 1991).
# Entries after “also recorded” stand apart in the source; their conditions may differ.
# Columns and labels:
# [1] = target: T1, oestrogen receptors (Rattus norvegicus, UniProt P06211); test: affinity for oestrogen receptors, competition with 3H-17-β-estradiol in rat uterus cytosol (dextran-charcoal method); assay type: binding; conditions: read-out: Estrogen receptor affinity (concentration of compound where 50% competition (inhibition) with 3H-estradiol occurred)
# T1 construct: rat uterus cytosol preparation; from tissue; host or cells: rat uterus cytosol
# T1 sequence (P06211 1-600): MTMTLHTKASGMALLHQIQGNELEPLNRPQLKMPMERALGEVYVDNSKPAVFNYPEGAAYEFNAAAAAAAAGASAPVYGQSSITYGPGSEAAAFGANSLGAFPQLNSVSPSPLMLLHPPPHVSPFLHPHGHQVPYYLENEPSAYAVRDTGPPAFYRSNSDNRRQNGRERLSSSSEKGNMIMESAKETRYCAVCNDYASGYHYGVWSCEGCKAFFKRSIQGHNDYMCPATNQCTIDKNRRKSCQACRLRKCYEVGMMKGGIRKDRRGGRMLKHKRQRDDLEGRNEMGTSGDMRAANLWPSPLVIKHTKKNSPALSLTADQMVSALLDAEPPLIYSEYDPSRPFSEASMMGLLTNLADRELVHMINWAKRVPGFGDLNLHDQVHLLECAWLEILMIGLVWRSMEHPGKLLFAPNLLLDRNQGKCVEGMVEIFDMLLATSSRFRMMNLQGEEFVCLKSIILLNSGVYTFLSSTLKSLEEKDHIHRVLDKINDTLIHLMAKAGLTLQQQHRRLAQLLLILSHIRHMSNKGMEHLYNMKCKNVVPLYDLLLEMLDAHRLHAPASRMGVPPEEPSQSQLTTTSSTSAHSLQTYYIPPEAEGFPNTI
# Description: The affinity of the new compounds for oestrogen receptors was determined by the ability to compete with ^3 H-labelled 17-β-estradiol in rat uterus cytosol preparation. After incubation, receptor-bound and receptor-unbound ligands were separated by a known dextrancharcoal method.
# [2] = test system: immature mouse uterus; test: oestrogenic effect, uterus weight of immature mice; assay type: in vivo; conditions: for increase in uterus weight / estrogenic effect: less than that of estradiol 0.05 mg/kg: 5 mg/kg; for estrogenic effect (in words): immature mice, s.c., three days
# Description: (§1) The oestrogen-antiestrogen (progesterone) effect of the new compounds in vivo was determined as follows: (1) The oestrogenic properties were determined by administering the new compounds, suspended in sesame oil, subcutaneously to 21 days old immature mice on three consecutive days. The mice were killed on the fourth day and the uterus was weighed. […] The weight correlates with the oestrogenic effect of the compound tested. […] In this case, the ability of the molecules to inhibit oestrogen-induced uterus weight increase was also investigated.
# [3] = test system: estradiol induced weight increase in immature mouse uterus; test: antiestrogenic effect, inhibition of oestrogen-induced uterus weight increase in immature mice; assay type: in vivo; conditions: for inhibition of estradiol-induced uterus weight increase: estradiol 5 μg/kg; for anti-estrogenic effect (in words): immature mouse uterus; for effect with estradiol (in words) / reduction in the weights of mice uterus, with estradiol: with estradiol 0.05 mg/kg
# Description: as §1
# [4] = test system: MCF-7 cell line (human mammary adenocarcinoma); test: anti-tumour effect in vitro, growth of MCF-7 cell line (bioluminescence assay, intracellular ATP); assay type: cell-based; conditions: read-out: Antitumour effect against MCF-7 cell line (IC50 = concentration of compound where 50% inhibition of cell growth could be seen)
# Description: The anti-tumour effect was studied in vitro as follows:
# The amount of living cells after 4 h, 24 h and 48 h incubations were determined by bioluminescence assay (intracellular ATP determination).
# inhibition of cell growth could be seen.
# [5] = test system: DMBA-induced rat mammary adenocarcinomas; test: antitumour effect in vivo against DMBA-induced rat mammary adenocarcinoma
# Description: The anti-tumour effect was investigated in vivo against DMBA-induced rat mammary adenocarcinomas, transplantable mammary and ovarial adenocarcinoma and transplantable prostatic squamous cell carcinoma by the following methods:
# Mammary adenocarcinomas were induced by DMBA in 35-40 days old female rats. […] Tumour size and numbers of tumours were evaluated twice a week. Tumour sizes in the control group, treated with solvent, were compared with the test groups.
# The size refers to the width×height of the tumour. The growth rate is a difference between sizes compared with that of the first day of the treatment.
# [6] = test system: immature mouse uterus; test: progestanic effect, uterus weight of immature mice (alone or with medroxyprogesterone acetate); assay type: in vivo; parameters: reduction in the weight of a mouse uterus, given alone / reduction in the weight of uterus with medroxyprogesterone / reduction in the weights of mice uterus, given alone: concentration or dose not given beside the values; conditions: for reduction in the weights of mice uterus, given alone: Table 2A; for effect with medroxyprogesterone (in words) / reduction in the weights of mice uterus with medroxyprogesterone, compared to control: with medroxyprogesterone 0.06 mg/kg
SMILES,IC50 [1] [nM],IC50 [4] [µM],increase in uterus weight [2] [%],inhibition of estradiol-induced uterus weight increase ([3]; 5 mg/kg),"growth rate of the tumours (in words) ([5]; rat, in vivo)",anti-estrogenic effect (in words) [3],effect with estradiol (in words) [3],"reduction in the weights of mice uterus, with estradiol [3] [%]",effect with medroxyprogesterone (in words) [6],"reduction in the weights of mice uterus with medroxyprogesterone, compared to control [6] [%]",estrogenic effect: less than that of estradiol 0.05 mg/kg [2],estrogenic effect (in words) [2],other results
"CNCCOc1ccc(/C(=C(/CCCl)c2ccccc2)c2ccccc2)cc1 [Compound 23, 4-chloro-1,2-diphenyl-1-[4-[2-(N-methylamino)ethoxy]phenyl]-1-butene]",1000 to 10000,1 to 5,≤ 55,68-100%,only the growth rate of the tumours was reduced,,,,,,,,
"CN(C)CCOc1ccc(/C(=C(/CCO)c2ccccc2)c2ccccc2)cc1 [Compound 4, 1,2-diphenyl-1-[4-[2-(N,N-dimethylamino)-ethoxy]-phenyl]-1-buten-4-ol]",1000 to 10000,1 to 5,,,,possessed anti-estrogenic effects,anti-,21,weak,17,,,"estrogenic effect of their own (in words) ([2]; up to 5 mg/kg): no estrogenic effect of their own; inhibition of estradiol induced effect in mouse uterus ([3]; 0.5 mg/kg): 12%; effect given alone: antiestrogenic (in words) ([3]; given alone): anti-; effect given alone: progestanic (in words) ([6]; given alone): progestanic; reduction in the weight of a mouse uterus, given alone ([6]; given alone): 38%; reduction in the weights of mice uterus, given alone ([6]; given alone): 31%; interaction with medroxyprogesterone (in words) ([6]; with medroxyprogesterone): slight inhibition; reduction in the weight of uterus with medroxyprogesterone ([6]; with medroxyprogesterone): 17%; growth rate of tumours compared to controls ([5]; 10 mg/kg): one eighth"
"CN(C)CCOc1ccc(/C(=C(/CCBr)c2ccccc2)c2ccccc2)cc1 [Compound 13, 4-bromo-1,2-diphenyl-1-[4-[2-(N,N-dimethylamino)ethoxy]phenyl]-1-butene]",100 to 1000,1 to 5,,,,possessed anti-estrogenic effects,anti-,25,weak,14,about 50%,could be seen only at the higher concentrations investigated,"effect given alone: estrogenic (in words) [2]: estrogenic; increase in the weights of mice uterus, given alone [2]: 50%; inhibition of estradiol induced effect in mouse uterus ([3]; 5 mg/kg): 25%; antitumour effect against DMBA-induced mammary cancer (in words) ([5]; compared with compound 7): Antitumour effect less than that of compound 7"

# Now from value to molecule, other results behind:
IC50 [1] [nM],IC50 [4] [µM],SMILES,increase in uterus weight [2] [%],inhibition of estradiol-induced uterus weight increase ([3]; 5 mg/kg),"growth rate of the tumours (in words) ([5]; rat, in vivo)",anti-estrogenic effect (in words) [3],effect with estradiol (in words) [3],"reduction in the weights of mice uterus, with estradiol [3] [%]",effect with medroxyprogesterone (in words) [6],"reduction in the weights of mice uterus with medroxyprogesterone, compared to control [6] [%]",estrogenic effect: less than that of estradiol 0.05 mg/kg [2],estrogenic effect (in words) [2],other results
100 to 1000,1 to 5,"CN(C)CCOc1ccc(/C(=C(/CCI)c2ccccc2)c2ccccc2)cc1 [Compound 22, 4-iodo-1,2-diphenyl-1-[4-[2-(N,N-dimethylamino)ethoxy]phenyl]-1-butene]",≤ 70,less than 67%,the growth rate of the tumours decreased,,,,,,,,"amount of new tumours (in words) ([5]; rat, in vivo): the amount of new tumours decreased"
100 to 1000,5 to 10,"CN(C)CCOc1ccc(/C(=C(/CCF)c2ccccc2)c2ccccc2)cc1 [Compound 21, 4-fluoro-1,2-diphenyl-1-[4-[2-(N,N-dimethylamino)ethoxy]phenyl]-1-butene]",≤ 55,68-100%,only the growth rate of the tumours was reduced,,,,,,,,
100 to 1000,5 to 10,"Oc1ccc([C@@H](c2ccccc2)[C@@H](CCCl)c2ccccc2)cc1 (relative stereo) [Compound 14, 4-chloro-1,2-diphenyl-1-(4-hydroxyphenyl)-butane]",,,,possessed anti-estrogenic effects,anti-,20,,,about 50%,could be seen only at the higher concentrations investigated,"effect given alone: estrogenic (in words) [2]: estrogenic; increase in the weights of mice uterus, given alone [2]: 50%; inhibition of estradiol induced effect in mouse uterus ([3]; 5 mg/kg): 20%"
100 to 1000,1 to 5,"Oc1ccc([C@@]2(c3ccccc3)OCCC[C@@H]2c2ccccc2)cc1 (relative stereo) [Compound 5, 2,3-diphenyl-2-(4-hydroxyphenyl)tetrahydropyran]",,,,no antiestrogenic effect,no synergism,,no inhibition,34,41%,could be seen only at the higher concentrations investigated,"estrogenic effect with increased doses (in words) ([2]; increased doses, effect overcame that of medroxyprogesterone): a weak estrogenic effect could be seen; also recorded: A slight increase in the weight of uterus; decrease of weight of mouse uterus ([6]; 0.05 mg/kg): 34%; effect given alone: progestanic (in words) ([6]; given alone): progestanic; reduction in the weights of mice uterus, given alone ([6]; given alone): 34%; progestanic effect (in words) ([6]; immature mouse uterus): due to its progestanic effect; interaction with medroxyprogesterone (in words) ([6]; with medroxyprogesterone): No inhibition of medroxyprogesterone"
